Source: PubChem BioAssay (NCI)
Values joined by “and” are separate entries in the source; they are usually repeats but may differ in a detail not shown here. Identical values can stand only once.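 Five compound concentrations were applied to cells in 96-well plates for 48 hours; endpoints were derived by simple linear interpolation of the resulting dose-response curve. The concentration for 50% growth inhibition is given as GI50. At the TGI there is no net growth.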

What was measured:
Assay in all cases: inhibition of tumour cell growth, NCI panel, 48 h
DU-145 prostate = tested on: DU-145 prostate
EKVX NSCLC = tested on: EKVX NSCLC
M14 melanoma = tested on: M14 melanoma
NCI/ADR-RES ovarian = tested on: NCI/ADR-RES ovarian
OVCAR-5 ovarian = tested on: OVCAR-5 ovarian
OVCAR-8 ovarian = tested on: OVCAR-8 ovarian
SNB-75 CNS = tested on: SNB-75 CNS
SR leukemia = tested on: SR leukemia
U251 CNS = tested on: U251 CNS
SF-539 CNS = tested on: SF-539 CNS

Compound	TGI (DU-145 prostate)	TGI (EKVX NSCLC)	TGI (M14 melanoma)	TGI (NCI/ADR-RES ovarian)	TGI (OVCAR-5 ovarian)	TGI (OVCAR-8 ovarian)	TGI (SNB-75 CNS)	TGI (SR leukemia)	TGI (U251 CNS)	GI50 (DU-145 prostate)	GI50 (NCI/ADR-RES ovarian)	TGI (SF-539 CNS)	GI50 (EKVX NSCLC) [µM]	GI50 (M14 melanoma)	GI50 (OVCAR-5 ovarian)	GI50 (OVCAR-8 ovarian)	GI50 (SF-539 CNS)	GI50 (SNB-75 CNS)	GI50 (SR leukemia)	GI50 (U251 CNS)
NCCP(=O)(O)O	> 100 µM	> 100 µM	> 100 µM	> 100 µM	> 100 µM	> 100 µM	> 100 µM	> 100 µM	> 100 µM											
CC(CN1CCN(CC(C)Nc2ccnc3cc(Cl)ccc23)CC1)Nc1ccnc2cc(Cl)ccc12 (centres undefined)	> 100 µM	> 58.9 µM	10.5 µM	> 100 µM	> 68.6 µM	> 64 µM	18.3 µM	7.45 µM	42.2 µM	7.83 µM	83.6 µM	10.4 µM								
CC(O)(CNS(=O)(=O)c1ccccc1)c1ccccc1 (centres undefined)	> 100 µM	> 100 µM	> 100 µM	> 100 µM	> 100 µM	> 100 µM	> 100 µM	> 100 µM	> 100 µM											
CCc1c(O)c2c(c(O)c1C(C)=O)C(=O)c1c(cc(O)c(C(=O)O)c1C(=O)O)C2=O	> 100 µM	> 100 µM	> 100 µM	> 100 µM	> 100 µM	> 100 µM	> 100 µM	> 100 µM	> 100 µM			> 100 µM								
O=C(O)c1cscc1Cc1cccs1	> 100 µM	> 100 µM	> 100 µM	> 100 µM	> 100 µM	> 100 µM	> 100 µM	> 100 µM	> 100 µM			> 100 µM								
COc1ccc(Cl)cc1NC(=O)c1cccc([N+](=O)[O-])c1O	> 100 µM	51.4 µM	> 100 µM	64.4 µM	> 100 µM	> 100 µM	> 88.3 µM	> 76.1 µM	> 62.7 µM			33 µM								
Cc1cc(C)n(C(=O)c2nn(-c3ccc(Cl)cc3)cc2O)n1	> 100 µM	> 100 µM	> 100 µM	> 100 µM	> 100 µM	> 100 µM	73.1 µM	> 100 µM	> 100 µM	6.23 µM	4.42 µM	35.1 µM	4.87	4.69 µM	4.98 µM	5.96 µM	3.05 µM	3.52 µM	> 100 µM	2.68 µM
NC(Cc1ccnnc1)C(=O)O (centres undefined)	> 100 µM	> 100 µM	> 100 µM	> 100 µM	> 100 µM	> 100 µM	> 100 µM	> 100 µM	> 100 µM			> 100 µM								
C#Cc1cccc(Oc2ccc(NC(=O)CCl)cc2)c1	> 82.5 µM	> 82.5 µM	> 82.5 µM	> 82.5 µM	> 82.5 µM	> 82.5 µM	> 82.5 µM	> 82.5 µM	> 82.5 µM	> 82.5 µM	> 82.5 µM	> 82.5 µM	> 82.5	72.8 µM	> 82.5 µM	64.3 µM	> 82.5 µM	> 82.5 µM	11.5 µM	> 82.5 µM
CCCCCCCCCCCCCC(=O)C(C)N (centres undefined)	7.35 µM	4.75 µM	22.1 µM	29.4 µM	23.8 µM	36.1 µM	20.7 µM	8.47 µM	21.7 µM	2.59 µM	13.7 µM	21.6 µM	2.13	8.66 µM	10.6 µM	18.4 µM	6.63 µM	6.56 µM	2.68 µM	8.29 µM
O=[N+]([O-])c1ccc(/C=C(/c2ccc([N+](=O)[O-])o2)S(=O)(=O)c2ccccc2)o1	28 µM	22.8 µM	25.5 µM	39.1 µM	33.9 µM	18.3 µM	33.7 µM	2.6 µM	29.4 µM			37.7 µM								
O=C1C(=O)c2ccccc2C(O)=C1CC=C(Cl)Cl	204 µM and > 100 µM	57.1 µM and 206 µM	> 90.7 µM and 108 µM and > 100 µM	56 µM and 174 µM and > 100 µM	195 µM and > 100 µM	206 µM and > 100 µM	65 µM and 169 µM and > 100 µM	> 91.1 µM and 156 µM and > 100 µM	> 85.8 µM and 138 µM and > 100 µM	12 µM and 10.9 µM	5.15 µM and 6.97 µM	54.3 µM and 107 µM and > 100 µM	13.4	29.4 µM and 9.94 µM	17.2 µM and 28.3 µM	6.49 µM and 4.81 µM	2.45 µM and 3.72 µM	21.3 µM and 6.06 µM	0.924 µM and 4.89 µM	2.17 µM and 2.01 µM
O=S(=O)(NCCNc1cc(-c2cn(-c3ccccc3)nc2-c2cccc(O)c2)ccn1)c1ccc(Cl)cc1	21.3 µM	31.2 µM	8.61 µM	13.4 µM	11 µM	22.6 µM	20.4 µM	5.07 µM	11.4 µM	3.6 µM	2.84 µM	5.3 µM	2.87	2.54 µM	2.66 µM	3.72 µM	2.08 µM	3.28 µM	1.71 µM	3.21 µM
CCN(CC)CCOc1ccc2c(c1)C(=O)c1cc(OCCN(CC)CC)ccc1-2	81.5 µM	63.6 µM	27.1 µM	33.2 µM	69.7 µM	54 µM	24.9 µM	6.59 µM	31.3 µM	14.8 µM	9.63 µM	5.72 µM	20	14 µM	35.6 µM	8 µM	2.54 µM	12.2 µM	2.69 µM	8.73 µM
CCOC(=O)N[C@H]1CCc2c(Br)c(OC)c(OC)c(OC)c2-c2ccc(SC)c(=O)cc21	0.125 µM	> 83.2 µM	4.35 µM	7.58 µM	25.6 µM	> 56.4 µM	16.1 µM	> 37.3 µM	14.1 µM	< 0.01 µM	0.025 µM	< 0.0106 µM	< 0.0112	< 0.0128 µM	0.0357 µM	0.0234 µM	< 0.01 µM	< 0.01 µM	< 0.01 µM	< 0.01 µM
CC(=O)OC1CCC2(C)C(=CCC3C4CCC5(OC6CC(C)CN(C(C)=O)C6C5C)C(C)=C4C(=O)C32)C1 (centres undefined)	> 100 µM	27.5 µM	28.9 µM	49.5 µM	46.6 µM	46.1 µM	41.5 µM	40.8 µM	30.8 µM			39.9 µM								
C(=C\c1nccc2c1[nH]c1ccccc12)/c1ccccc1	12.3 µM	59.6 µM	> 100 µM	20.3 µM	> 100 µM	> 100 µM	21.9 µM	6.84 µM	13.7 µM	3.5 µM	3.1 µM	4.51 µM	1.72	2.91 µM	3.04 µM	4.69 µM	1.98 µM	2.76 µM	1.11 µM	3.26 µM
O=C(O)c1cc(Cc2ccc(O)c(C(=O)O)c2)ccc1O (tested in a mixture with another compound)	27.8 µM	18 µM	21.8 µM	21 µM	27.1 µM	6.26 µM	22.4 µM	8.67 µM	27.7 µM	12 µM	6.48 µM	26.6 µM	4.82	5.28 µM	11.5 µM	2.41 µM	11.4 µM	3.32 µM	1.41 µM	9.44 µM
O=C(Nc1ccc(Cl)cc1)c1cc(S(=O)(=O)Nc2nnc(-c3ccccc3)c(-c3ccccc3)n2)c(SCc2ccccc2)cc1Cl	> 62.1 µM	> 63.8 µM	51.6 µM	> 80.2 µM	> 58 µM	> 71 µM		> 57.3 µM	51.3 µM	37.2 µM	> 50.2 µM	> 100 µM	32.1	21.2 µM	36.4 µM	31.8 µM	35 µM		28.9 µM	20.7 µM
C1=C(c2ccccc2)C(c2ccc(OCCN3CCCCC3)cc2)Oc2ccccc21 (centres undefined)	9.12 µM	3.35 µM	3.38 µM	8.16 µM	3.29 µM	5.91 µM	3.44 µM	3.94 µM	3.18 µM	2.73 µM	2.4 µM	3.08 µM	1.54	1.73 µM	1.61 µM	2.3 µM	1.62 µM	1.6 µM	1.93 µM	1.65 µM
CO[C@@]12C[C@H]3[C@@H]([C@@H](O)[C@@H](OC(=O)/C=C/c4ccccc4)[C@@]4(O)C(C)(C)CCC[C@]34C)[C@@H](C)C1=CC(=O)O2	78.8 µM	57.5 µM	> 100 µM	> 100 µM	48 µM	25.6 µM	2.46 µM	> 100 µM	13.7 µM	13.4 µM	11 µM	27.4 µM	5.36	18.2 µM	17.1 µM	5.24 µM	12.4 µM	0.382 µM	> 100 µM	3.29 µM
COC(=O)C1(C2CC/C(C)=C/CC/C(C)=C/CC[C@@]3(C)O[C@@H]3C2)CC1 (some centres undefined)	> 100 µM	> 100 µM	> 72.2 µM	> 100 µM	> 100 µM	> 65.1 µM	> 100 µM	> 51.9 µM	> 100 µM	33.6 µM	> 55 µM	> 69.2 µM	> 100	37.5 µM	> 100 µM	> 44.3 µM	35.2 µM	> 100 µM	12.4 µM	39.1 µM
COc1ccc(-c2nnc(N3CCN(C(=O)CN4CCN(c5ccc(Cl)cc5)CC4)CC3)nc2-c2ccc(OC)cc2)cc1	> 100 µM	> 100 µM	> 100 µM	> 100 µM	> 100 µM	> 100 µM	65.3 µM	> 100 µM	> 100 µM	> 100 µM	20.7 µM	74.8 µM	> 100	35.8 µM	> 100 µM	35.8 µM	15.1 µM	19.5 µM	31.5 µM	15 µM
C/C1=C\C/C=C(\C)[C@H]2CC(CC/C(C)=C/CC1)[C@](C)(C=O)O2	> 100 µM	> 100 µM	> 100 µM	> 100 µM	> 100 µM	> 100 µM	> 100 µM	35.5 µM	> 100 µM	79.8 µM	> 100 µM	> 100 µM	> 100	51.9 µM	> 100 µM	> 100 µM	> 100 µM	> 100 µM	16.3 µM	43.9 µM
CC(C)(C)OC(=O)CN1CCc2c(sc3ncnc(N/N=C/c4cccc5ccccc45)c23)C1	31.9 µM	> 33.3 µM		14.5 µM	8.41 µM	> 33.3 µM	14.4 µM	15.2 µM	14.6 µM	4.73 µM	3.55 µM	7.02 µM	2.22		3.34 µM	2.58 µM	1.73 µM	1.04 µM	1.46 µM	3.18 µM
Cc1cccc2c1O/C(=C\c1ccc([N+](=O)[O-])o1)C2=O	2.12 µM		3.21 µM	> 60.4 µM	3.74 µM	7.93 µM	5.8 µM	0.727 µM	2.89 µM	0.659 µM	2.54 µM	3.22 µM		1.43 µM	1.79 µM	0.941 µM	1.53 µM	1.64 µM	0.12 µM	1.44 µM
Cc1cc(C)c2c(SCc3ccc(Cl)cc3Cl)nc(N)nc2n1	> 100 µM	> 100 µM	> 100 µM	> 100 µM	> 100 µM	> 100 µM	> 100 µM	> 100 µM	> 100 µM											
COc1ccc(/C=C/C(=O)c2cc3c(N)c(C(=O)Nc4ccccc4C)sc3nc2C)cc1	> 23.4 µM	> 50 µM		2 µM	> 50 µM	> 50 µM	1.85 µM	> 50 µM	> 50 µM	0.431 µM	0.228 µM	1.68 µM	1.88		1.39 µM	1.14 µM	0.487 µM	0.17 µM	0.593 µM	1.4 µM
[C-]#[N+][C@]12C(=O)[C@H](CCC1(C)C)C(C)(C)[C@H]1C(=O)N(C)c3cccc2c31	> 100 µM		> 100 µM	> 100 µM	> 100 µM	> 100 µM	> 100 µM	> 100 µM	> 100 µM	61.6 µM	> 100 µM	> 100 µM		29.9 µM	> 100 µM	13.8 µM	61.6 µM	64.3 µM	6.52 µM	7.08 µM
